The text below walks through data of US8067410B2, “Phenolic and catecholic amines and prodrugs thereof” (H. Lundbeck A/S, priority 2008, dated 2011).

Assay [1] has as its target human recombinant D1 receptor (Homo sapiens, UniProt P21728). The assay can be described thus: D1 cAMP assay. The assay is classed as cell-based. Here is the method:
The ability of the compounds to either stimulate or inhibit the D1 receptor mediated cAMP formation in CHO cells stably expressing the human recombinant D1 receptor was measured as follows. Cells were seeded in 96-well plates at a concentration of 11000 cells/well 3 days prior to the experiment. On the day of the experiment the cells were washed once in preheated G buffer (1 mM MgCl2, 0.9 mM CaCl2, 1 mM IBMX (3-i-butyl-1-methylxanthine) in PBS (phosphate buffered saline)) and the assay was initiated by addition of 100 micro-L of a mixture of 30 nM A68930 and test compound diluted in G buffer (antagonism) or test compound diluted in G buffer (agonism). The cells were incubated for 20 minutes at 37° C. and the reaction was stopped by the addition of 100 micro-L S buffer (0.1 M HCl and 0.1 mM CaCl2) and the plates were placed at 4° C. for 1 h. 68 micro-L N buffer (0.15 M NaOH and 60 mM NaOAc) was added and the plates were shaken for 10 minutes. 60 micro-1 of the reaction were transferred to cAMP FlashPlates (DuPont NEN) containing 40 micro-L 60 mM Sodium acetate pH 6.2 and 100 micro-L IC mix (50 mM Sodium acetate pH 6.2, 0.1% sodium azide, 12 mM CaCl2 1% BSA (bovine serum albumin) and 0.15 micro-Ci/mL ^125I-cAMP) were added. Following an 18 h incubation at 4° C. the plates were washed once and counted in a Wallac TriLux counter.

Another assay addresses T1, human D2 receptor (Homo sapiens, UniProt P14416).
T1 construct: expressed in transfected cells; host or cells: CHO cells
As to the kind of experiment: D2 cAMP assay. The assay is classed as cell-based. Here is the method: The ability of the compounds to either stimulate or inhibit the D2 receptor mediated inhibition of cAMP formation in CHO cells transfected with the human D2 receptor was measure as follows. Cells were seeded in 96 well plates at a concentration of 8000 cells/well 3 days prior to the experiment. On the day of the experiment the cells were washed once in preheated G buffer (1 mM MgCl2, 0.9 mM CaCl2, 1 mM IBMX in PBS) and the assay was initiated by addition of 100 micro-1 of a mixture of 1 micro-M quinpirole, 10 microM forskolin and test compound in G buffer (antagonism) or 10 micro-M forskolin and test compound in G buffer (agonism). The cells were incubated 20 minutes at 37° C. and the reaction was stopped by the addition of 100 micro-1 S buffer (0.1 M HCl and 0.1 mM CaCl2) and the plates were placed at 4° C. for 1 h. 68 micro-L N buffer (0.15 M NaOH and 60 mM Sodium acetate) were added and the plates were shaken for 10 minutes. 60 micro-L of the reaction were transferred to cAMP FlashPlates (DuPont NEN) containing 40 micro-L 60 mM NaOAc pH 6.2 and 100 micro-L IC mix (50 mM NaOAc pH 6.2, 0.1% Sodium azide, 12 mM CaCl2, 1% BSA and 0.15 micro-Ci/ml ^125I-cAMP) were added. Following an 18 h incubation at 4° C. the plates were washed once and counted in a Wallac TriLux counter.

Where [2] appears, read: cAMP formation in CHO cells stably expressing the human recombinant D1 receptor, read-out: D1 EC 50.
The mark [3] stands for this setting: inhibition of forskolin-stimulated cAMP formation in CHO cells transfected with the human D2 receptor, read-out: D2 EC 50.

Where a name gives a salt, the structure may show the parent alone. Read-outs that look alike come from different tables or passages of the source.

human recombinant D1 receptor, sequence (P21728 whole entry): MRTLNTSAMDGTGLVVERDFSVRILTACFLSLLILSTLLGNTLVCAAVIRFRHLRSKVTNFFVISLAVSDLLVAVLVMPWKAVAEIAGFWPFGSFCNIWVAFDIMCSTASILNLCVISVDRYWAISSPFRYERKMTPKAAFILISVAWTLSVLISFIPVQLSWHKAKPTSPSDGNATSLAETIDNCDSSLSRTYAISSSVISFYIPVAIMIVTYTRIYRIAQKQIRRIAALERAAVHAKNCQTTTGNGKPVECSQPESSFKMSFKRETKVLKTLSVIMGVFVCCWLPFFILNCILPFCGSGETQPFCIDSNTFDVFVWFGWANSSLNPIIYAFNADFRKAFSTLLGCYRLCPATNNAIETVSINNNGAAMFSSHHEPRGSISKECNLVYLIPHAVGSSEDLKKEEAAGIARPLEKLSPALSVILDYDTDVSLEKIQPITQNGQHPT
T1 sequence (P14416 whole entry): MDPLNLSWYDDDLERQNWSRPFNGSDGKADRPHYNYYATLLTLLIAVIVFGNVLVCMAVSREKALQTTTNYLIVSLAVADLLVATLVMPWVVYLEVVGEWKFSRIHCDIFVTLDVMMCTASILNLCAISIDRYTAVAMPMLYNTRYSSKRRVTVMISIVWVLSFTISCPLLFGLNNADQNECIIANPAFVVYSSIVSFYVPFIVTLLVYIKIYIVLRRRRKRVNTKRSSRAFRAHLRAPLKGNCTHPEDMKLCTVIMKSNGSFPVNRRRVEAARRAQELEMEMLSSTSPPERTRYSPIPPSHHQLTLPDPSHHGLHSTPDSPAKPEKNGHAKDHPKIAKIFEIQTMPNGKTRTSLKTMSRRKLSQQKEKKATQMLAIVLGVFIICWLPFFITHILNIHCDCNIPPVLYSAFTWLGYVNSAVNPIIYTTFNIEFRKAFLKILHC

Consider `CCCN1C[C@@H](CSC)O[C@@H]2Cc3c(cccc3OC)C[C@H]21` [Example 3c, (2S,4aR,10aR)-9-Methoxy-2-methylsulfanylmethyl-4-n-propyl-3,4,4a,5,10,10a-hexahydro-2H-naphtho[2,3-b][1,4]oxazine], for which the EC50 in assay [1] (setting [2]) is > 10000 nM; on human D2 receptor (setting [3]), 110 nM.
For the compound `CCCN1C[C@H](Cn2ccnc2)O[C@@H]2Cc3c(cccc3OC)C[C@H]21` [Example 3e, (2R,4aR,10aR)-2-Imidazol-1-ylmethyl-9-methoxy-4-n-propyl-3,4,4a,5,10,10a-hexahydro-2H-naphtho[2,3-b][1,4]oxazine], the EC50 is 5800 nM in assay [1] and 30 nM at human D2 receptor.
With `Oc1cccc2c1C[C@@H]1OCCN(CC3CC3)[C@H]1C2` [Example 5d2, (4aS,10aS)-4-cyclo-Propylmethyl-3,4,4a,5,10,10a-hexahydro-2H-naphtho[2,3-b][1,4]oxazin-9-ol hydrochloride], the values for the EC50 (in assay [1]; on human D2 receptor) were > 10000 nM and 1400 nM, respectively.
Take `CCCN1C[C@H](C)O[C@@H]2Cc3c(O)cccc3C[C@H]21` [Example 5k, (2S,4aR,10aR)-2-Methyl-4-n-propyl-3,4,4a,5,10,10a-hexahydro-2H-naphtho[2,3-b][1,4]oxazin-9-ol trifluoroacetate]: the EC50 in assay [1] amounted to 180 nM; at human D2 receptor, 2 nM.
Consider `CCCN1CCO[C@@H]2Cc3c(ccc(O)c3O)C[C@H]21` [Example 7, (4aR,10aR)-4-n-Propyl-3,4,4a,5,10,10a-hexahydro-2H-naphtho[2,3-b][1,4]oxazine-8,9-diol trifluoroacetate], for which the EC50 in assay [1] stood at 200 nM; at human D2 receptor, 0.15 nM.
In the case of `CCCN1CCO[C@@H]2Cc3c(ccc4c3OCO4)C[C@H]21` [Example 8c, (6aR,10aR)-7-n-Propyl-6a,7,8,9,10a,11-hexahydro-6H-1,3,10-trioxa-7-aza-cyclo-penta[a]anthracene trifluoroacetate], the EC50 in assay [1] (setting [2]) was > 10000 nM; at human D2 receptor (setting [3]), 140 nM.
